Results: ChEMBL document CHEMBL6087477, “G9a/GLP Modulators: Inhibitors to Degraders” (J Med Chem, 2025)

Columns and labels:
[1] = target: T1, Histone-lysine N-methyltransferase EHMT2 (Homo sapiens, UniProt Q96KQ7); test: Inhibition of G9a (unknown origin)
T1 sequence (Q96KQ7 whole entry): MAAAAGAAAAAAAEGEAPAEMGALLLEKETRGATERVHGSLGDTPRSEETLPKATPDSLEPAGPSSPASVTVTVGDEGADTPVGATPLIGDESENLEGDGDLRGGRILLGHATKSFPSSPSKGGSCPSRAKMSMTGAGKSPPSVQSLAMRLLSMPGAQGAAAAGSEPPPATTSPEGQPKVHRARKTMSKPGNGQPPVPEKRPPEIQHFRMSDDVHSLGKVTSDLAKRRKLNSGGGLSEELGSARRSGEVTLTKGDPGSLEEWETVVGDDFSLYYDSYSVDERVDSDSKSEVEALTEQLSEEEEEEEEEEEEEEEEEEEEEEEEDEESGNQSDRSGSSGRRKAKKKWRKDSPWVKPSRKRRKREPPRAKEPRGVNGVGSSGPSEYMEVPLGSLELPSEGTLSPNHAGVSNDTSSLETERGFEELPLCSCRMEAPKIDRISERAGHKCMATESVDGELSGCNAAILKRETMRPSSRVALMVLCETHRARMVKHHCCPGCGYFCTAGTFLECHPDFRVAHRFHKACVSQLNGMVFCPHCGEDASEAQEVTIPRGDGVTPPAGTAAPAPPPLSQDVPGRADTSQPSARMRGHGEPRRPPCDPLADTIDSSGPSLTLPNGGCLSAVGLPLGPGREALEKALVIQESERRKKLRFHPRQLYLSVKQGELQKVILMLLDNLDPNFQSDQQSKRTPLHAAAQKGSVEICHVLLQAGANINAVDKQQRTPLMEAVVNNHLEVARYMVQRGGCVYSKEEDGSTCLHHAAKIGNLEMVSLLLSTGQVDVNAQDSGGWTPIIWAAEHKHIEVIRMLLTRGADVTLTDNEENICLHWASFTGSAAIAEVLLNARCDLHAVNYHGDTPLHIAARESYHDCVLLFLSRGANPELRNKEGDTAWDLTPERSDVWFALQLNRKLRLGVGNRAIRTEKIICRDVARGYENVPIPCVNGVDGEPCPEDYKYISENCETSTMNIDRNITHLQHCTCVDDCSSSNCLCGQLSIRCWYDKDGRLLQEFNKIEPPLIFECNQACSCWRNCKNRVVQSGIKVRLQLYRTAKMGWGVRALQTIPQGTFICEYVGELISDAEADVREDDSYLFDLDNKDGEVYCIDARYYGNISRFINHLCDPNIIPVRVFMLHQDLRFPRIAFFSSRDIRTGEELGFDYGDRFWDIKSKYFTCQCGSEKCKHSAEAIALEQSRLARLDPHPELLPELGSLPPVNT

[2] = target: T1, Histone-lysine N-methyltransferase EHMT2; test: Binding affinity to G9a (unknown origin) assessed as inhibition constant
[3] = target: T2, Histone-lysine N-methyltransferase EHMT1 (Homo sapiens, UniProt Q9H9B1); test: Binding affinity to GLP (unknown origin) assessed as inhibition constant
T2 sequence (Q9H9B1 whole entry): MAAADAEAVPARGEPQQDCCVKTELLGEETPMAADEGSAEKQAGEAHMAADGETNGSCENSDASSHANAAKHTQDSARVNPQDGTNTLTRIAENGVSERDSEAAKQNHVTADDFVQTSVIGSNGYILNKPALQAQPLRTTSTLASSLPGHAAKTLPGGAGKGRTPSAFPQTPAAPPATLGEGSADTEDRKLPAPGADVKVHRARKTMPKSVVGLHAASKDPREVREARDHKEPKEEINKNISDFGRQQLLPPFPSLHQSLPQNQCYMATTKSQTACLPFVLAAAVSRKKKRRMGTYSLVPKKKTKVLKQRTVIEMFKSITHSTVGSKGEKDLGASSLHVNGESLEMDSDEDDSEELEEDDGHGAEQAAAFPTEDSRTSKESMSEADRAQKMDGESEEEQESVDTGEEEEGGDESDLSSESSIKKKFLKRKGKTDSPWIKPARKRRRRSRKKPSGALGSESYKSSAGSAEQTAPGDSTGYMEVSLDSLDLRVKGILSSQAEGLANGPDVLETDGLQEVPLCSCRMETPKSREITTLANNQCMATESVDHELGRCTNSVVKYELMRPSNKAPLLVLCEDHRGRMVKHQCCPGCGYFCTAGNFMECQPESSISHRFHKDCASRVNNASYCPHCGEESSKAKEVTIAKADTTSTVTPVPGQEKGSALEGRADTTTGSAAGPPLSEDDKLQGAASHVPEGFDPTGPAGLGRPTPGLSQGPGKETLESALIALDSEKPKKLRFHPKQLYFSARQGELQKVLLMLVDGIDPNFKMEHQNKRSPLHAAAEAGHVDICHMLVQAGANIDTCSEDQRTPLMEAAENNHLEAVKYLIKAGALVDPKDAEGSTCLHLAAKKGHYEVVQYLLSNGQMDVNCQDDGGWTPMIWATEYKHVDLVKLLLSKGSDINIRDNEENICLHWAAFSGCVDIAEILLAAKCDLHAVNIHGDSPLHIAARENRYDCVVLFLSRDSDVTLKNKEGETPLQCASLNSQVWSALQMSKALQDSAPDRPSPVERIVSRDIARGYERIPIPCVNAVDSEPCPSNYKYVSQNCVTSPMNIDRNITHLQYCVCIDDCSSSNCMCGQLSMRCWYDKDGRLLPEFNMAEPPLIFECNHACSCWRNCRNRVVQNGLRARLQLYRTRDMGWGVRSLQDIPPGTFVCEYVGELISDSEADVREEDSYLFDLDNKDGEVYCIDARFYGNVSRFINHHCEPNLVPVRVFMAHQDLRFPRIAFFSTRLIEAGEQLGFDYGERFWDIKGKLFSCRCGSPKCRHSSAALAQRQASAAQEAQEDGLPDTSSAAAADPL

MCF7 [4] = test: Cytotoxicity against human MCF7 cells; assay type: functional, cell-based
[5] = Antiproliferative activity against human WSU-FSCCL cells assessed as reduction in cell viability; assay type: functional, cell-based
[6] = Antiproliferative activity against human WILL-1 cells assessed as reduction in cell viability; assay type: functional, cell-based
DOHH-2 = test: Antiproliferative activity against human DOHH-2 cells assessed as reduction in cell viability; assay type: functional, cell-based
[7] = Antiproliferative activity against human SC1 cells assessed as reduction in cell viability; assay type: functional, cell-based; conditions: SC-1
DB = test: Antiproliferative activity against human DB cells assessed as reduction in cell viability; assay type: functional, cell-based
SU-DHL-8 = test: Antiproliferative activity against human SU-DHL-8 cells assessed as reduction in cell viability; assay type: functional, cell-based
MCF7 [8] = test: Antiproliferative activity against human MCF7 cells assessed as reduction in cell viability by sulforhodamine B assay; assay type: functional, cell-based
T47D = test: Antiproliferative activity against human T47D cells assessed as reduction in cell viability by sulforhodamine B assay; assay type: functional, cell-based
SK-BR-3 = test: Antiproliferative activity against human SK-BR-3 cells assessed as reduction in cell viability by sulforhodamine B assay; assay type: functional, cell-based
[9] = target: T2, Histone-lysine N-methyltransferase EHMT1; test: Inhibition of GLP (unknown origin)
[10] = Microsomal stability in human liver microsomes assessed as half life measured for incubated upto 60 mins by LC-MS/MS analysis; assay type: ADME, Microsome
[11] = Microsomal stability in mouse liver microsomes assessed as half life incubated upto 60 mins by LC-MS/MS analysis; assay type: ADME, Microsome
[12] = Half life in Balb/c mouse at 3 mg/kg, iv; assay type: ADME, organism-based; conditions: in vivo
[13] = target: T1, Histone-lysine N-methyltransferase EHMT2; test: Inhibition of G9a (unknown origin) using H3 as peptide substrate measured after 20 mins by fluorescence based analysis
hERG (KCNH2) = hERG (KCNH2) (Homo sapiens, UniProt Q12809); test: Inhibition of hERG at 30 uM relative to control; assay type: toxicity
[14] = Cmax in mouse at 10 mg/kg, po; assay type: ADME, organism-based; conditions: in vivo
[15] = target: T2, Histone-lysine N-methyltransferase EHMT1; test: Inhibition of GLP (unknown origin) measured after 20 mins by fluorescence based analysis

hERG (KCNH2), sequence (Q12809 whole entry): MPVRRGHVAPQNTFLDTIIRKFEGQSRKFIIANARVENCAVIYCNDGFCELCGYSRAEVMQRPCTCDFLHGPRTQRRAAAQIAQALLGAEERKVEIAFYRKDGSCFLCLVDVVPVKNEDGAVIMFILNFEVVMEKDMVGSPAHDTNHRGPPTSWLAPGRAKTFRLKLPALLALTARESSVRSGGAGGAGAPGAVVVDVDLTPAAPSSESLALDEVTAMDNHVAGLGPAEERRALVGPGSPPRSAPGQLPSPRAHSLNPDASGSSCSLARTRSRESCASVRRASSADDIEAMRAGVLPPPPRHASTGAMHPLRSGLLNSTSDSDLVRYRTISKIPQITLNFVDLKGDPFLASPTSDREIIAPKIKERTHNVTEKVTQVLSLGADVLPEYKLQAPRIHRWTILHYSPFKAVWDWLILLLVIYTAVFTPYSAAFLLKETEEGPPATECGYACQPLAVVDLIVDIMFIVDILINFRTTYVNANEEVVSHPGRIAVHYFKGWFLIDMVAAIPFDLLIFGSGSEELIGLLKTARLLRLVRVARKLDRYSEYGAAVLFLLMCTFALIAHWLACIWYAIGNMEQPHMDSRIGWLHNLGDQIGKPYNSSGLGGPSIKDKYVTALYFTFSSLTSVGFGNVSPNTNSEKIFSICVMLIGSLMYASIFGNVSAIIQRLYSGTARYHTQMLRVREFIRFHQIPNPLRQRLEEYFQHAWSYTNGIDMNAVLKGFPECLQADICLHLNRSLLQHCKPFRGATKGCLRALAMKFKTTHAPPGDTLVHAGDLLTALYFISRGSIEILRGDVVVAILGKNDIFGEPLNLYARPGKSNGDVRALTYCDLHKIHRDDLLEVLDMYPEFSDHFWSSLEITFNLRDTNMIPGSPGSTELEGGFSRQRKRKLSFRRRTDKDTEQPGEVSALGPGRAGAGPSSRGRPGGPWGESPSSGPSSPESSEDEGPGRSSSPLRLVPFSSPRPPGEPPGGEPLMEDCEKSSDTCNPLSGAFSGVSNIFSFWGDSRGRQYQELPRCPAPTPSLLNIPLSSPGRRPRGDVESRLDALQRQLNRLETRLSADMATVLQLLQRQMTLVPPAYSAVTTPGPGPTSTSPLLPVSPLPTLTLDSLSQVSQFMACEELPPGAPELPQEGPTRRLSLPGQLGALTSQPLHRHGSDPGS

COc1cc2c(NC3CCN(C)CC3)nc(N3CCCN(C)CC3)nc2cc1OCCOCCN(C)C
IC50 [1]: < 15 nM
Ki [2]: 9 nM
Ki [3]: 15 nM

COc1cc2c(NC3CCN(C(C)C)CC3)nc(C3CCCCC3)nc2cc1OCCCN1CCCC1
EC50 (MCF7 [4]): 7600 nM

COc1cc2nc(N3CCN(C)CC3)nc(NC3CCN(Cc4ccccc4)CC3)c2cc1OC
IC50 [5]: 3400 nM
IC50 [6]: 5600 nM
IC50 (DOHH-2): 3300 nM
IC50 [7]: 3700 nM
IC50 (DB): < 1000 nM
IC50 (SU-DHL-8): < 1000 nM
IC50 (MCF7 [8]): 7700 nM
IC50 (T47D): 8500 nM
IC50 (SK-BR-3): 7700 nM

COc1cc2c(NC3CCN(C(C)C)CC3)nc(N3CCOCC3)nc2cc1OCCCN1CCCC1
IC50 [9]: < 2.5 nM

COc1cc2c(NC3CCN(C(C)C)CC3)cc(C3CCCCC3)nc2cc1OCCCN1CCCC1
IC50 [9]: 0.7 nM

COc1cc2c(NC3CCN(C4CC4)CC3)cc(-c3ccc(C)o3)nc2cc1OCCCN1CCCC1
IC50 [9]: 22 nM
half-life [10]: > 2.4 h
half-life [11]: 0.6 h
half-life [12]: 24.2 h

COc1cc2c(NC3CCN(C)CC3)cc(-c3ccc(C)o3)nc2cc1OCCCN1CCCC1
IC50 [9]: 8 nM
half-life [10]: > 2.4 h
half-life [11]: 0.1 h
half-life [12]: 10.4 h

CNc1cc(C)nc(Nc2ccc(OC)c(C3=CCNCCC3)c2)n1
IC50 [13]: 32.3 nM

COc1cc2c(cc1C1=CCN(C)CCC1)N=C(N)C21CCC1
inhibition at 30 µM (hERG (KCNH2)): 1%
IC50 [13]: 75.7 nM

Cc1c(C(=O)N[C@@H](CCC2CC2)C(=O)Nc2ccc(C#N)cc2)[nH]c2c1C(=O)CC(C)(C)C2
IC50 [9]: 53 nM
Cmax [14]: 42.4 µM

CN1C(=O)[C@]23C[C@]4([C@]56C[C@]78SS[C@](CO)(C(=O)N7[C@H]5Nc5ccccc56)N(C)C8=O)c5ccccc5N[C@@H]4N2C(=O)[C@@]1(CO)SS3
IC50 [1]: 1700 nM

COc1cc2c(N(C)C3CCN(C(C)C)CC3)nc(C3CCCCC3)nc2cc1OCCCN1CCCC1
IC50 [1]: 5 nM
IC50 [9]: > 10 nM

CN1C(=O)C2C[C@]3([C@]45CC6C(=O)N(C)[C@@H](CO)C(=O)N6[C@H]4Nc4ccccc45)c4ccccc4N[C@@H]3N2C(=O)[C@@H]1CO (some centres not stated)
IC50 [1]: > 50000 nM

CN1C(=O)C2C[C@]3([C@]45CC6C(=O)N(C)[C@H](CO)C(=O)N6[C@H]4Nc4ccccc45)c4ccccc4N[C@@H]3N2C(=O)[C@H]1CO (some centres not stated)
IC50 [1]: > 50000 nM

COc1cc2c(cc1C1=CCNCCC1)N=C(N)C21CCC1
IC50 [15]: 33.9 nM
inhibition at 30 µM (hERG (KCNH2)): 5%
IC50 [13]: 33.9 nM

CCN(c1cc(-c2ccc(CN3CCOCC3)cc2)cc(C(=O)NCc2c(C)cc(C)[nH]c2=O)c1C)C1CCOCC1 [TAZEMETOSTAT]
IC50 [1]: 15 nM
